From patent US9141756B1, “Multi-scale complex systems transdisciplinary analysis of response to therapy” (University of Southern California, priority 2010, dated 2015)
Read-outs that look alike come from different tables or passages of the source.

Legend:
[1] = tested on: Eμ-myc lymphomas; details: cited from earlier work
[2] = tested on: A431-sensitive cancer cell line; experiment: SILAC proteomic profiling of response to gefitinib

Compound | Phenotype: response to CTX ([1]; Eμ-Myc genotype) | Phenotype: response to CTX ([1]; Eμ-Myc/Arf −/− genotype (lymphoma lacking ARF)) | Phenotype: response to CTX ([1]; Eμ-Myc/Bcl2 genotype) | Phenotype: response to CTX ([1]; Eμ-Myc/p53 −/− genotype (lymphoma lacking p53)) | proteins showing a statistically significant change in abundance following treatment ([2]; A431 cells, SILAC) | potential cell-surface biomarkers showing changes in abundance in response to therapy ([2]; both in vitro and in vivo (xenograft)) | additional proteins showing changes in the secretome and serum ([2]; secretome and serum)
O=P1(N(CCCl)CCCl)NCCCO1 (stereo not shown) [CTX, cyclophosphamide] | variable response to CTX | slightly resistant to CTX | medium resistant to CTX | highly resistant to CTX |  |  | 
COc1cc2ncnc(Nc3ccc(F)c(Cl)c3)c2cc1OCCCN1CCOCC1 [geftinib, gefitinib] |  |  |  |  | 400 | Ten | seven
